# Assay results taken from publication PMC12693135, “Ocular Toxicity and Mechanistic Investigation for Berberine and Its Metabolite Berberrubine on Zebrafish” (Molecules, 2025).
# What was measured:
# [1] = tested on: wild-type AB strain zebrafish ocular cells; assay: Fluorescence microscopy for ocular cell apoptosis (acridine orange); format: in vivo, zebrafish (Danio rerio); settings: for fluorescence intensity of apoptotic ocular cells (ratio to eye area): control 0.19
# Procedure: To investigate the underlying mechanism of ocular toxicity, we evaluated the proapoptotic effects of BBR and M1 on wild-type AB strain zebrafish ocular cells. Zebrafish embryos at 6 hpf were water-soluble administration with BBR (25 or 50 μM) or M1 (100 or 200 μM), and the fluorescence intensity of apoptotic ocular cells was measured at 5 dpf using confocal fluorescence microscopy (Figure 4A). […] Specifically, the fluorescence intensity (a marker of apoptotic cell abundance) was increased from 0.19 to 0.28 and 0.32 upon the treatments of 25 μM BBR and 50 μM BBR, respectively.
# A total of 30 wild-type AB strain zebrafish at 6 hpf were treated with BBR at 25 or 50 μM, M1 at 100 or 200 μM, or 0.05% DMSO (control), respectively, […], with 30 larvae per treatment and three biological replicates (total 90 larvae per group). The zebrafish larvae were then stained with acridine orange. After staining, 10 larvae were randomly selected from each experimental group and imaged using a motorized-focus continuous-zoom fluorescence microscope AZ100 (Nikon, Shinagawa-ku, Japan) with the magnification of 10–40× and exposure time of 200–500 ms. The fluorescence intensity of ocular apoptotic cells and mitochondria in zebrafish larvae was measured and analyzed using NIS-Elements 6.10 (Nikon Imaging Software, Nikon, Japan).
# [2] = tested on: wild-type AB strain zebrafish larvae; assay: Zebrafish visual motor response (locomotor behavior, dark/light); format: in vivo, zebrafish (Danio rerio); settings: for swimming pattern (trajectories) upon light stimulation: first 30 s of light stimulation, compared to controls
# Procedure: Wild-type larvae (6 hpf, 30 per group) were incubated with BBR at the concentrations of 20, 50, 100, and 200 µM or M1 at the concentrations of 20, 50, 100, 200, 400, and 625 µM for 5 days. At 120 hpf, larvae were tested in a 96-well plate (1 larva/well, 12 per group). After 10 min acclimation, light-dark transition tests were performed (5 min dark to 5 min light, repeated 3 times), with recordings every 1 min for 40 min. The trajectory and 1 min movement distance were recorded by Behavioral Tracking System: Daniovision, Zebralab 3.3 (ViewPoint, Civrieux, France). Data were processed in Excel (Microsoft, Redmond, WA, USA). Metrics included 1 min total distance, movement time, and average speed. Averages of 12 larvae per group were used for bar graphs; comparisons with the control group were analyzed via t-test. The experiment was conducted three times in parallel.
# [3] = tested on: mitochondrial complex I (NADH dehydrogenase); assay: Mitochondrial complex I activity assay in treated zebrafish larvae; format: in vivo, zebrafish (Danio rerio); settings: BBR 25 or 50 μM, M1 100 or 200 μM, 5 dpf
# Procedure: Wild-type AB strain zebrafish (6 hpf) were treated with BBR (25 or 50 μM), M1 (100 or 200 μM), or 0.05% DMSO (control) until 5 dpf, with 9 larvae per treatment and three biological replicates ([…]). Three zebrafish larvae were harvested per group (3 samples per group) and homogenized on ice following the protocol of the Mitochondrial Respiratory Chain Complex I Activity Assay Kit (Solabor, Beijing, China). Briefly, cell homogenates were centrifuged at 600× g for 5 min at 4 °C, and the supernatants were transferred to new microcentrifuge tubes. The samples were then centrifuged again at 11,000× g for 10 min at 4 °C; the precipitates (containing mitochondria) were used for the complex I activity assay. These precipitates were subjected to ultrasonication in the appropriate reaction buffer, and reactions were set up according to the protocol. After mixing, the OD340 values at time 0 (OD1) and at 2 min (OD2) were recorded using a Synergy H1 multifunctional microplate reader (Biotek, Winooski, VT, USA). The ΔOD value was calculated by subtracting OD2 from OD1. Mitochondrial complex I activity was calculated according to the formula provided in the protocol and expressed as units per mg of sample protein.
# [4] = tested on: rabbit corneal epithelium; parameters: method as in PMID 32074824; settings: topical application of 1.5 mg/mL; cited from earlier work
# [5] = tested on: human lens epithelial cells (HLE-B3); parameters: method as in PMID 17645667; settings: 25 μM under UVA exposure; cited from earlier work
SMILES,apoptosis in ocular cells ([1]; 200 μM compared with 100 μM),average swimming distance ([2]; 625 μM),swimming duration ([2]; concentrations above 200 μM),"locomotion in the dark ([2]; dark, 20-625 µM)",swimming pattern (trajectories) upon light stimulation [2],mitochondrial complex I activity [3],fluorescence intensity of apoptotic ocular cells (ratio to eye area) ([1]; 25 μM),fluorescence intensity of apoptotic ocular cells (ratio to eye area) ([1]; 50 μM),corneal epithelial repair [4],"average swimming speed, dark conditions ([2]; dark, 200 μM)","swimming distance and duration, dark conditions ([2]; dark, concentrations above 100 μM)","locomotor metrics (distance, time, speed) upon light stimulation ([2]; light stimulation, 200 μM)",phototoxic damage to cells [5]
"COc1ccc2cc3[n+](cc2c1O)CCc1cc2c(cc1-3)OCO2 [M1, berberrubine]",significant increase in apoptosis,reduced average swimming distance,decreased swimming duration,did not affect locomotion in the dark,irregular and disorganized swimming patterns,"marked, dose-dependent decrease",,,,,,,
"COc1ccc2cc3[n+](cc2c1OC)CCc1cc2c(cc1-3)OCO2 [BBR, berberine]",,,,,irregular and disorganized swimming patterns,dose-dependently suppressed,0.28,0.32,delayed corneal epithelial repair,decreased average speed,significantly reduced,significant reductions in all three locomotor metrics,severe damage
